Test results: US20090306373A1, “4,7-DIHYDROTHIENO[2,3-B]PYRIDINE COMPOUNDS AND PHARMACEUTICAL COMPOSITIONS” (priority 2005, published 2009)

Test system: alpha-MyHC
Assay: alpha-MyHC cytoblot in neonatal rat ventricular myocytes (NRVM)
Type: cell-based
Settings: for Max Plateau: fitted maximum, percent fraction of low control (vehicle), in %; for EC50: Rattus norvegicus, Ventricular myocyte, concentration giving 50% of maximum response
Experimental: In vitro activity of each compound is measured using the alpha-MyHC cytoblot process. Briefly, neonatal rat ventricular myocytes (NRVM) at 120,000 cells/ml in HyQ DME/High modified culture media supplemented with 10% charcoal/dextran treated FBS, 0.1% Nutridoma-SP, 1:100 MEM non-essential amino acids, 1:50 MEM amino acids solution w/o L-Gln, 1 mM sodium pyruvate and 1:100 P/S/G, are plated on gelatin coated sterile 384-well plates (Costar 3712) at 6,000 cells per well. Cells are incubated overnight at 37° C. in 5% CO2 100% humidity. Following overnight growth the media is changed to HyQ DME/High modified culture media supplemented with 0.3% Nutridoma-SP, 1:100 MEM non-essential amino acids, 1:50 MEM amino acids solution w/o L-Gln, 1 mM sodium pyruvate and 1:100 P/S/G. Cells are then dosed with serial dilutions of each compound in DMSO. Each concentration in the dose range is dosed in quadruplicate. Dosing is done in such a way so that the final DMSO concentration was 0.44%. Compound dilutions are 3-fold with the final top concentration of 10 uM. […] Following dosing, the cells are incubated for 72 hours at 37° C. in 5% CO2 100% humidity and then processed with the cytoblot method. Briefly, cell media is aspirated and cell monolayers washed with PBS and fixed with 100% methanol for 30 minutes. Fixed cells are then blocked with PBS, 0.05% Tween-20, 1% BSA, for 1 hour. Following blocking, cells are incubated with primary alpha-MyHC-specific antibody (1:30 dilution of BA-G5 hybridoma conditioned media, ATCC HB276) for 1 hour. Following incubation with the primary antibody, cells are washed with PBS, 0.05% Tween-20, 1% BSA and incubated with secondary antibody (1:1000 dilution, goat-anti-mouse HRP, Southern Biotech, 1031-05) for 1 hour. Following incubation with the secondary antibody, wells are washed and incubated in SuperSignal, West Dura HRP-luminescence substrate for 30 seconds under shaking at room temperature. Luminescence is measured using a Packard Fusion plate reader. […] RLU values are converted into percent fraction of low control and dose responses are fitted to a sigmoidal 4-parameter equation (XLFit, IDBS) where the EC50 and Max Plateau values were extracted. […] Max Plateau is the […] maximum value determined by the dose response fit.

SMILES | Max Plateau (Table 1, 72 hours) | further results
CC(=O)C1=C(C)Nc2sc(C(=O)c3ccc(Cl)c(Cl)c3)c(N)c2C1c1cc(F)cc(F)c1 (stereo not drawn) [Compound 55] | 229.93 ± 37.33 | 
CCOC(=O)C1=C(CC)Nc2sc(C(=O)c3cccnc3)c(N)c2C1c1ccncc1F (stereo not drawn) [Compound 174, 3-amino-6-ethyl-4-(3 fluoro-pyridin-4-yl)-2-(pyridine-3-carbonyl)-4,7 dihydro-thieno[2,3-b]pyridine-5-carboxylic acid ethyl ester] |  | EC50 (Table 2, 72 hours): 0.0219 µM
CCC1=C(C(=O)OC)C(c2ccccc2F)c2c(sc(C(=O)c3cccc(C#N)c3)c2N)N1 (stereo not drawn) [Compound 164] |  | Max Plateau (Table 2, 72 hours): 279.90
CCC(=O)C1=C(CC)Nc2sc(C(=O)c3ccc(Cl)c(Cl)c3)c(N)c2C1c1ccnc(F)c1 (stereo not drawn) [Compound 98] | 255.02 ± 32.01 | 
CCC(=O)C1=C(CC)Nc2sc(C(=O)c3ccc(Cl)c(Cl)c3)c(N)c2C1c1ccccc1 (stereo not drawn) [Compound 36] | 256.56 ± 24.93 | 
CCC(=O)C1=C(CC)Nc2sc(C(=O)c3cccc(C(=O)OC)c3)c(N)c2C1c1ccccc1 (stereo not drawn) [Compound 74] | 262.81 ± 32.38 | 
CC(=O)C1=C(C)Nc2sc(C(=O)c3ccc(Cl)c(Cl)c3)c(N)c2C1c1ccc(Br)cc1 (stereo not drawn) [Compound 22] | 174.35 ± 23.39 | 
COCCOC(=O)C1=C(C)Nc2sc(C(=O)c3ccc(Cl)c(Cl)c3)c(N)c2C1c1ccccc1 (stereo not drawn) [Compound 119] |  | Max Plateau (Table 2, 72 hours): 234.93
CCNC(=O)C1=C(C)Nc2sc(C(=O)c3ccc(Cl)c(Cl)c3)c(N)c2C1c1ccccc1 (racemic) [Compound 195] |  | Max Plateau (Table 3, 72 hours): 126.67 ± 23.09
CCC(=O)C1=C(CC)Nc2sc(C(=O)c3cccc(Cl)c3)c(N)c2C1c1ccccc1 (stereo not drawn) [Compound 66] | 306.19 ± 54.21 | 
CCC1=C(C(=O)OC(C)CC)C(c2ccccc2F)c2c(sc(C(=O)c3ccc(Cl)c(Cl)c3)c2N)N1 (single isomer, unassigned) [Compound 162] |  | Max Plateau (Table 2, 72 hours): 183.22
CCCC(=O)C1=C(CCC)Nc2sc(C(=O)c3ccc(F)c(F)c3)c(N)c2C1c1ccccc1 (stereo not drawn) [Compound 95] | 147.01 ± 6.43 | 
CC(=O)C1=C(C)Nc2sc(C(=O)c3ccccc3)c(N)c2C1c1ccc(Cl)cc1 (stereo not drawn) [Compound 21] | 193.20 ± 49.26 | 
CCC1=C(C(=O)OC)C(c2ccccc2F)c2c(sc(C(=O)c3ccc(Cl)c(C)c3)c2N)N1 (stereo not drawn) [Compound 150] |  | Max Plateau (Table 2, 72 hours): 228.28
CCOC(=O)C1=C(CC)Nc2sc(C(=O)c3cc(C(F)(F)F)cc(C(F)(F)F)c3)c(N)c2C1c1ccccc1 (stereo not drawn) [Compound 149] |  | Max Plateau (Table 2, 72 hours): 207.18
CCC(=O)C1=C(CC)Nc2sc(C(=O)c3ccc(Cl)c(C)c3)c(N)c2C1c1ccccc1 (stereo not drawn) [Compound 89] | 230.09 ± 19.81 | 
CC(=O)C1=C(C)Nc2sc(C(=O)c3ccccc3)c(N)c2C1c1cccnc1 (stereo not drawn) [Compound 20] | 127.35 ± 23.71 | 
CC(=O)C1=C(C)Nc2sc(C(=O)c3ccc(Cl)c(Cl)c3)c(N)c2C1c1ccc(F)cc1 (stereo not drawn) [Compound 50] | 190.79 ± 27.94 | 
CC(=O)C1=C(C)Nc2sc(C(=O)c3ccc(Cl)c(Cl)c3)c(N)c2C1c1ccc(C(C)(C)C)cc1 (stereo not drawn) [Compound 32] | 100.00 ± 0.00 | 
CC(=O)C1=C(C)Nc2sc(C(=O)c3cccc(Br)c3)c(N)c2C1c1ccccc1 (stereo not drawn) [Compound 6] | 289.34 ± 70.69 | 
CC(=O)C1=C(C)Nc2sc(C(=O)c3ccc(Cl)c(Cl)c3)c(N)c2C1c1ccccc1F (stereo not drawn) [Compound 27] | 220.13 ± 23.10 | 
CCC1=C(C(=O)OC(C)CC)C(c2ccccc2F)c2c(sc(C(=O)c3cccc(C#N)c3)c2N)N1 (single isomer, unassigned) [Compound 166] |  | Max Plateau (Table 2, 72 hours): 219.07
CC(=O)C1=C(C)Nc2sc(C(=O)c3ccc(Cl)c(Cl)c3)c(N)c2C1c1ccc(Cl)cc1Cl (stereo not drawn) [Compound 52] | 122.73 ± 20.55 | 

SMILES | Max Plateau (Table 1, 72 hours) | further results
CC(=O)C1=C(C)Nc2sc(C(=O)c3ccc(Cl)c(Cl)c3)c(N)c2C1c1ccccc1O (stereo not drawn) [Compound 34] | 184.69 ± 15.76 | 
CCC1=C(C(=O)OC)C(c2ccccc2F)c2c(sc(C(=O)c3cccc(Cl)c3)c2N)N1 (stereo not drawn) [Compound 167] |  | Max Plateau (Table 2, 72 hours): 255.95
CCC(=O)C1=C(CC)Nc2sc(C(=O)c3ccc(Cl)c(Cl)c3)c(N)c2C1c1ccccc1[N+](=O)[O-] (stereo not drawn) [Compound 59] | 152.77 ± 11.42 | 
CCOC(=O)C1=C(CC)Nc2sc(C(=O)c3cccc(C(=O)O)c3)c(N)c2C1c1ccccc1 (stereo not drawn) [Compound 152] |  | Max Plateau (Table 2, 72 hours): 238.69
CC(=O)C1=C(C)Nc2sc(C(=O)c3ccc(Cl)c(Cl)c3)c(N)c2C1c1ccc(C)cc1 (stereo not drawn) [Compound 45] | 108.63 ± 9.14 | 
CCC(=O)C1=C(CC)Nc2sc(C(=O)c3ccc(F)c(F)c3)c(N)c2C1c1cc(F)cc(F)c1 (stereo not drawn) [Compound 101] | 230.49 ± 17.13 | 
CCC(=O)C1=C(CC)Nc2sc(C(=O)c3cc(F)cc(F)c3)c(N)c2C1c1ccccc1 (stereo not drawn) [Compound 76] | 230.70 ± 23.22 | 
CC(=O)C1=C(C)Nc2sc(C(=O)c3cccc([N+](=O)[O-])c3)c(N)c2C1c1ccccc1Cl (stereo not drawn) [Compound 4, 1-[3-amino-4-(2-chloro-phenyl)-6-methyl-2-(3-nitro-benzoyl)-4,7-dihydro-thieno[2,3-b]pyridin-5-yl]-ethanone] |  | EC50 (Table 1, 72 hours): 0.0857 µM
CCC(=O)C1=C(CC)Nc2sc(C(=O)c3ccc(Cl)c(Cl)c3)c(N)c2C1c1ccnc(Cl)c1 (stereo not drawn) [Compound 99] | 264.37 ± 33.84 | 
CCCC(=O)C1=C(CCC)Nc2sc(C(=O)c3ccc(Cl)cc3Cl)c(N)c2C1c1ccccc1F (stereo not drawn) [Compound 91] | 143.39 ± 20.69 | 
CCC(=O)C1=C(CC)Nc2sc(C(=O)c3ccc(F)c(F)c3)c(N)c2C1c1ccnc(F)c1 (stereo not drawn) [Compound 102] | 269.88 ± 36.90 | 
CCC(=O)C1=C(CC)Nc2sc(C(=O)c3ccc(Cl)c(Cl)c3)c(N)c2C1c1cccc2ccccc12 (stereo not drawn) [Compound 85] | 105.90 ± 6.18 | 
CCC1=C(C(=O)OCC(C)C)C(c2ccccc2)c2c(sc(C(=O)c3ccc(Cl)c(Cl)c3)c2N)N1 (stereo not drawn) [Compound 161] |  | Max Plateau (Table 2, 72 hours): 232.35
CCOC(=O)C1=C(C)Nc2sc(C(=O)c3ccccc3)c(N)c2C1(C)c1ccccc1 (stereo not drawn) [Compound 206] |  | EC50 (Table 4, 72 hours): 0.936 µM
CCC(=O)C1=C(CC)Nc2sc(C(=O)c3ccc(Cl)c(Cl)c3)c(N)c2C1c1ccccc1Cl (stereo not drawn) [Compound 38] | 288.93 ± 52.81 | 
CC(=O)C1=C(C)Nc2sc(C(=O)c3ccncc3)c(N)c2C1c1ccccc1 (stereo not drawn) [Compound 10] | 210.00 ± 36.06 | 
CCOC(=O)C1=C(C)Nc2sc(C(=O)c3ccc(Cl)c(Cl)c3)c(N)c2C1c1ccccc1 (stereo not drawn) [Compound 113] |  | Max Plateau (Table 2, 72 hours): 256.38
CC(=O)C1=C(C)Nc2sc(C(=O)c3ccccc3)c(N)c2C1c1ccccc1 (stereo not drawn) [Compound 3] | 250.88 ± 32.62 | 
CC(=O)C1=C(C)N(C)c2sc(C(=O)c3ccccc3)c(N)c2C1c1ccccc1 (stereo not drawn) [Compound 208, 1-(3-amino-2-benzoyl-6,7 dimethyl-4-phenyl-4,7 dihydro-thieno[2,3-b]pyridin-5-yl)-ethanone] |  | EC50 (Table 5, 72 hours): 3.43 µM
CC(=O)C1=C(C)Nc2sc(C(=O)c3ccccc3)c(N)c2C1c1ccccc1F (stereo not drawn) [Compound 24] | 260.35 ± 43.53 | 
CC1=C(C(=O)OC(C)C)C(c2ccccc2)c2c(sc(C(=O)c3ccc(Cl)c(Cl)c3)c2N)N1 (stereo not drawn) [Compound 135] |  | Max Plateau (Table 2, 72 hours): 186.32
CCC(=O)C1=C(CC)Nc2sc(C(=O)c3cccc([N+](=O)[O-])c3)c(N)c2C1c1ccccc1F (stereo not drawn) [Compound 97] | 247.24 ± 38.88 | 
